Assay results reported in patent US12544375B2, “Small molecule therapeutic for parkinson's disease paired with a biomarker of therapeutic activity” (The Board of Trustees of the Leland Stanford Junior …, priority 2019, dated 2026).

System: iPSC-derived dopaminergic neurons from PD patients
Test: Antimycin A stress-induced neurodegeneration of iPSC-derived dopaminergic neurons (TH, PI staining)
Format: cell-based, human
Conditions: 5 μM for 30 hrs, 10 μM Antimycin A for 6 hrs, neurons from both PD patients
Experimental: FIG. 3A-FIG. 3D. Miro1 Reducer Rescues Parkinson's Neurodegeneration. (FIG. 3A) Fibroblasts were treated, lysed, and blotted as indicated. Band intensities are normalized to those of ATP5β from the same blots and compared to “Healthy-2, no treatment”. n=4. (FIG. 3B-FIG. 3C) iPSC-derived neurons were treated as indicated and immunostained with anti-TH (FIG. 3B) or stained with PI and Dapi (FIG. 3C). Both Antimycin A and Miro1 Reducer were dissolved in ethanol. Neurons were pretreated with Miro1 Reducer 24 hrs before the application of Antimycin A for another 6 hrs. The same volume of ethanol was applied at the same time in negative controls. (FIG. 3B) The density of TH-positive neurons is calculated in each condition under 20×, from 10 fields each experiment, 3-4 experiments. […] (FIG. 3C) The percentage of PI-positive cells out of total cells (Dapi-positive) is calculated. n=20 fields each experiment, 4 experiments. For (FIG. 3B-FIG. 3C), comparisons with “Wild-type-I, no treatment” except otherwise indicated. […] Graphs of Mean±S.E.M show the percent of time each mitochondrion is in motion (red and blue, compared to “Wild-type-I, before treatment”), and the mitochondrial intensity normalized to that of the same axonal region at “0 min” and expressed as a fraction of the mean of “Wild-type-I, 0 min”. n=33-77 mitochondria from 5-8 axons from 5-8 separate transfections. […]

**Q.** With `O=C(Nc1ccc(Nc2cc(-n3ccnc3)ncn2)cc1)Nc1cccc(F)c1` [Miro1 Reducer] as the compound, how does the “stress-induced neurodegeneration of dopaminergic neurons” value read?
**A.** The value was “completely rescued”.
